Results from ChEMBL document CHEMBL6087453, “Minimalist Natural ORPphilin Macarangin B Delineates OSBP Biological Function” (J Med Chem, 2025).

How the values were obtained:
[1] = biological target: T1, Oxysterol-binding protein 1 (Homo sapiens, UniProt P22059); assay: Binding affinity to OSBP (unknown origin) ORD domain assessed as dissociation constant by FRET assay
T1 sequence (P22059 whole entry): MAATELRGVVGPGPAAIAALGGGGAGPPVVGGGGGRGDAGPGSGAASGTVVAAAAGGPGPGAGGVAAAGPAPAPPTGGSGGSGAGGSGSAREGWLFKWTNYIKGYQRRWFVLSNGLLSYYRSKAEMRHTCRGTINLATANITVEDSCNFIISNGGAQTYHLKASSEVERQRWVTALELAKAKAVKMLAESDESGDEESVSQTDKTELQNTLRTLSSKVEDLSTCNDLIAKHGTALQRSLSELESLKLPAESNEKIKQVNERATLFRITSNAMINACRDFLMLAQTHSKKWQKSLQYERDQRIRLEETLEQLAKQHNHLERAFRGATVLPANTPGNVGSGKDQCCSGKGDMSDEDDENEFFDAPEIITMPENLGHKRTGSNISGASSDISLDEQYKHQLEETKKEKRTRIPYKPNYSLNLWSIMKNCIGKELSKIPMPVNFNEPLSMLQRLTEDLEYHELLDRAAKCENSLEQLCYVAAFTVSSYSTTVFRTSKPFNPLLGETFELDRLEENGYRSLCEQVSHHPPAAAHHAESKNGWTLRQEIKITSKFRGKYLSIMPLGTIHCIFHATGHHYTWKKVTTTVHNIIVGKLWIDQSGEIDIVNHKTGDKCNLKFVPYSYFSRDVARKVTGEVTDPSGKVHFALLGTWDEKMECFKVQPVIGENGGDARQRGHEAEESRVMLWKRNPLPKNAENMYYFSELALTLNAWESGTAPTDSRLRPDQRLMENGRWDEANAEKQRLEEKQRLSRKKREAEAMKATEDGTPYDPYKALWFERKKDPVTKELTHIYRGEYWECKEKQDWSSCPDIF

in vitro [2] = conditions: human, RPE-1 cells (TERT-RPE1)
Description: Cytotoxicity against human RPE-1 cells assessed as inhibition of cell proliferation incubated for 72 hrs by celltiter-glo assay

in vitro [3] = conditions: human, MRC5 cells
Description: Cytotoxicity against human MRC5 cells assessed as inhibition of cell proliferation incubated for 72 hrs by celltiter-glo assay

PC-3 = assay: cells; conditions: Homo sapiens, PC-3, 72 h
Description: Cytotoxicity against human PC-3 cells assessed as inhibition of cell proliferation incubated for 72 hrs by celltiter-glo assay

A549 = assay: cells; conditions: Homo sapiens, A549, 72 h
Description: Cytotoxicity against human A549 cells assessed as inhibition of cell proliferation incubated for 72 hrs by celltiter-glo assay

MDA-MB-231 = assay: cells; conditions: Homo sapiens, MDA-MB-231, 72 h
Description: Cytotoxicity against human MDA-MB-231 cells assessed as inhibition of cell proliferation incubated for 72 hrs by celltiter-glo assay

in vitro [4] = conditions: human, HeLa cells
Description: Cytotoxicity against human HeLa cells assessed as inhibition of cell proliferation incubated for 72 hrs by celltiter-glo assay

MCF7 = assay: cells; conditions: Homo sapiens, MCF7, 72 h
Description: Cytotoxicity against human MCF7 cells assessed as inhibition of cell proliferation incubated for 72 hrs by celltiter-glo assay

CC(C)=CCc1c(O)cc(/C=C/c2cc(O)c3c(c2)C[C@@H]2C(C)(C)[C@H](O)CC[C@@]2(C)O3)cc1O [SCHWEINFURTHIN G]
Kd [1]: 22 nM
IC50 at 72 h (in vitro [2]): 400 nM
IC50 at 72 h (in vitro [3]): 300 nM
IC50 (PC-3): 300 nM
IC50 (A549): 500 nM
IC50 (MDA-MB-231): 300 nM
IC50 at 72 h (in vitro [4]): 100 nM
IC50 (MCF7): 1000 nM
